The record followed here is patent US11433042B2, “Methods and compositions for treating metabolic disorders” (Joslin Diabetes Center, Inc., priority 2017, dated 2022).

One assay has as its system Ephx2. As to the kind of experiment: Ephx2 gene expression by qPCR after CL316,243 treatment. Type of assay: in vivo. The conditions noted are these: mice, daily 1 mg/kg intraperitoneally for 10 days. As to the method:
(§1) Total RNA was extracted from tissue with Trizol and purified using a spin column kit (Zymo Research). RNA (500 ng-1 μg) was reverse transcribed with a high-capacity complementary DNA (cDNA) reverse transcription kit (Applied Biosystems). Real-time PCR was performed in mouse tissues starting with 10 ng of cDNA and forward and reverse oligonucleotide primers (300 nM each) in a final volume of 10 μl with SYBR green PCR Master Mix (Roche). Fluorescence was determined and analyzed in an ABI Prism 7900 sequence detection system (Applied Biosystems). Acidic ribosomal phosphoprotein P0 (ARBP) expression was used to normalize gene expression.
In general terms: In qPCR the cycle at which signal appears reflects the starting amount.

The next assay deals with Ephx1. As to the kind of experiment: Ephx1 gene expression by qPCR after CL316,243 treatment. In kind it is in vivo. Conditions: mice, daily 1 mg/kg intraperitoneally for 10 days. As to the method: as §1
A further assay relates to mature brown adipocytes. As to the kind of experiment: In vitro fatty acid uptake (FFA-SS-Luc) in brown adipocytes constitutively expressing luciferase. Type of assay: cell-based, mice. The conditions noted are these: data not shown. As to the method:
Stromal vascular cells were isolated from interscapular brown adipose tissue dissected from TgLuc mice (Stock no. 008450) obtained from The Jackson Laboratory. Cells were immortalized and differentiated into adipocytes in vitro according to the WT-1 protocol (Tseng, Y. H. et al., Mol. Cell Biol. 24, 1918-1929 (2004)). After 1 hour of serum starvation, mature adipocytes were treated with 1 μM 12,13-diHOME or methyl acetate vehicle in 0.1% w/v BSA in PBS for 15 minutes. After this treatment, cells were incubated with 10 μm FFA-SS-Luc (Intrace Medical) and imaged using the IVIS Spectrum CT using sequential 30 s exposures for 1 hour. Data was analyzed using Living Image Software and movies were assembled from individual images using ImageJ. All cultures were confirmed to be Mycoplasma free.

The nature of assay [1]: Acute BAT activation, serum 12,13-diHOME by LC-MS/MS. In kind it is in vivo. Conditions: mice treated for 30 minutes. Here is the method: All lipid standards were purchased from Cayman Chemical Company, Avanti Polar Lipids, or Santa Cruz Biotechnology, Inc. C18SPE cartridges were purchased from Biotage. All solvents are of HPLC or LC-MS/MS grade and were acquired from Sigma-Aldrich, Fisher Scientific, or VWR International. Tissue samples were homogenized in 0.1×PBS in Omni homogenizing tubes with ceramic beads at 4° C. Aliquots of 100 μL serum or 1 mg protein of homogenized tissue (measured by BCA) were taken, depending on the experiment. A mixture of deuterium-labeled internal standards was added to each aliquot, followed by 3× volume of sample of cold methanol (MeOH). Samples were vortexed for 5 min and stored at -20° C. overnight. Cold samples were centrifuged at 14,000 g for 10 min, and the supernatant was then transferred to a new tube and 3 mL of acidified H2O (pH 3.5) was added to each sample prior to C18 SPE and performed as previously described (Powell, W. S., Methods Mol Biol. 120, 11-24 (1999)). The methyl formate fractions were collected, dried under nitrogen, and reconstituted in 50 μL MeOH:H2O (1:1, by vol). […] The identity of a component was confirmed using PeakView® software (SCIEX), and quantification was performed using MultiQuantTM software (SCIEX). The quantification of 12,13-diHOME was performed against a standard calibration curve built with 5 points ranging from 0.01 pg/μL to 100 pg/μL. […]

As to `C[C@H](Cc1ccc2c(c1)OC(C(=O)[O-])(C(=O)[O-])O2)NC[C@H](O)c1cccc(Cl)c1.[Na+].[Na+]` [CL316,243], in the assay on Ephx2, the “Ephx2 expression in BAT” value was “increased”. For the same molecule, the “Ephx1 expression in sWAT” value with Ephx1 is “increased”.
As for `NC[C@H](O)c1ccc(O)c(O)c1` [NE, Norepinephrine, reference compound], in the assay with mature brown adipocytes, the “effect of NE treatment added to 12,13-diHOME on FFA-SS-Luc uptake in vitro” value was “no additive effect”. For the same molecule, the “12,13-diHOME production (serum concentration)” value in assay [1] was “induced”.
